Structures can show the parent of a compound that is named as a salt. Where two headings read alike, the source gives them in different places.
Target: T1, human calcium receptor (Homo sapiens, UniProt P41180)
T1 construct: expressed in transfected cells
T1 sequence (P41180 20-1078): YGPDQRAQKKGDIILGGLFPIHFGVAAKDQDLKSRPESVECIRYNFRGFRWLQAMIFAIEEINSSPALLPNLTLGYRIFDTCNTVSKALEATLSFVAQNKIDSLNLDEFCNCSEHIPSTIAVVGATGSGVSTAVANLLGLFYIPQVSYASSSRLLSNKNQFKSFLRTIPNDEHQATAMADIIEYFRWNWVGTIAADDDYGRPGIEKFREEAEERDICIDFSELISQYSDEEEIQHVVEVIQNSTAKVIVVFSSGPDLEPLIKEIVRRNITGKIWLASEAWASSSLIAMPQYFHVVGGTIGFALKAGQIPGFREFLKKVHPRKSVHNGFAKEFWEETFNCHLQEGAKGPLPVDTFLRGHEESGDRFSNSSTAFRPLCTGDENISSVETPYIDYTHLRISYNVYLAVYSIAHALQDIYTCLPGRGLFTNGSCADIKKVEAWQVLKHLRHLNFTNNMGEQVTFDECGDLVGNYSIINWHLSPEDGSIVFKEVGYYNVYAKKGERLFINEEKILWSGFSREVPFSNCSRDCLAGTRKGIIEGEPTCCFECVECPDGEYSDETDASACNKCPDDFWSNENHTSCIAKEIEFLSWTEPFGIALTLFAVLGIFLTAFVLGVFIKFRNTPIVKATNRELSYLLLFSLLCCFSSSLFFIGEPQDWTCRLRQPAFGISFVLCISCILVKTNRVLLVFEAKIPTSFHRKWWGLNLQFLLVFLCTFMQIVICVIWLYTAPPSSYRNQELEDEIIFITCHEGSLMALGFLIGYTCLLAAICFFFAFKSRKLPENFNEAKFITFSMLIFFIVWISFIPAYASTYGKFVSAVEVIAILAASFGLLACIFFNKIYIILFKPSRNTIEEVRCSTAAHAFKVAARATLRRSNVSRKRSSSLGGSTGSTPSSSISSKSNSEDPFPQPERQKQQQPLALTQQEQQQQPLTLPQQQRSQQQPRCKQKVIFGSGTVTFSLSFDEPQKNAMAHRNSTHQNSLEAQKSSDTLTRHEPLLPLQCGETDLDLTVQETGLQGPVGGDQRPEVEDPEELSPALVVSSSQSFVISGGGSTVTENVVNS
Assay: Calcium Receptor Inhibitor Assay
Type: cell-based
Summary of the method: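 Intracellular Ca^2+ measured with fluo-3 at 37° C in stirred cell suspension. Buffer held 1 mM CaCl2 and 1 mg/mL D-glucose. Compound or vehicle added 90 seconds before extracellular Ca^2+ was raised from 1 to 2 mM, and calcilytic activity scored as concentration-dependent block of the intracellular Ca^2+ rise.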

[1] = HEK 293 4.0–7 cells stably expressing the human calcium receptor, fluo-3, read-out: IC50 for blocking increases of intracellular Ca2+ elicited by extracellular Ca2+

Row | Structure (SMILES) | IC50 [1] [µM] | IC50 [µM]
1 | COc1ccc(CC(C)(C)NCC(O)COc2ccc(OC(F)(F)F)cc2)cc1 (centres unmarked) [Compound 152, N-[2-hydroxy-3-(4-trifluoromethoxyphenoxy)propyl)-1,1-dimethyl-2-(4-methoxyphenyl)ethylamine Hydrochloride] | < 10 | –
2 | COc1ccc(CC(C)(C)NCC(O)COc2cccc(OC)c2C#N)cc1 (centres unmarked) [Compound 118, N-[2-Hydroxy-3-(2-cyano-3-methoxyphenoxy)propyl]-1,1-dimethyl-2-(4-methoxyphenyl)ethylamine Hydrochloride] | < 1 | –
3 | COc1ccc(CC(C)(C)NC[C@@H](O)COc2ccc3c(c2)[nH]c2ccccc23)cc1 [Compound 167] | < 1 | –
4 | COc1ccc(CC(C)(C)NCC(O)COc2cc(Cl)cc(OC)c2)cc1 (centres unmarked) [Compound 157, N-[2-hydroxy-3-(3-chloro-5-methoxyphenoxy)propyl]-1,1-dimethyl-2-(4-methoxyphenyl)ethylamine Hydrochloride] | < 1 | –
5 | COc1ccc(CC(C)(C)NCC(O)COc2ccc(OC)c(OC)c2)cc1 (centres unmarked) [Compound 132, N-[2-hydroxy-3-(3,4-dimethoxyphenoxy)propyl]-1,1-dimethyl-2-(4-methoxyphenyl)ethylamine Hydrochloride] | < 10 | –
6 | COc1ccc(CC(C)(C)NCC(O)COc2ccc(OC)cc2)cc1 (centres unmarked) [Compound 7, N-[2-Hydroxy-3-(4-methoxyphenoxy)propyl]-1,1-dimethyl-2-(4-methoxyphenyl)ethylamine Hydrochloride] | < 10 | –
7 | CCCCOCC(O)CNC(C)(C)Cc1ccc(OC)cc1 (centres unmarked) [Compound 26, N-(2-Hydroxy-3-butoxypropyl)-1,1-dimethyl-2-(4-methoxyphenyl)ethylamine] | – | < 10
8 | CCC(CC)(Cc1ccc(OC)cc1)NCC(O)COc1ccccc1 (centres unmarked) [Compound 114, N-(2-Hydroxy-3-phenoxypropyl)-1,1-diethyl-2-(4-methoxyphenyl)ethylamine Hydrochloride] | < 10 | –
9 | COc1ccc(CC(C)(C)NCC(O)COC2CCCCC2C#N)cc1 (centres unmarked) [Compound 131, N-[2-hydroxy-3-(2-cyano-cyclohexyloxy)propyl-1,1-dimethyl-2-(4-methoxyphenyl)ethylamine Hydrochloride] | – | < 1
10 | COc1ccc(CC(C)(C)NCC(O)COc2cccc(Cl)c2)cc1 (centres unmarked) [Compound 43, N-[2-Hydroxy-3-(3-chlorophenoxy)propyl]-1,1-dimethyl-2-(4-methoxyphenyl)ethylamine Hydrochloride] | < 1 | –
11 | COc1ccc(CC(C)(C)NCC(O)COCCCCCCc2ccccc2)cc1 (centres unmarked) [Compound 126, N-[2-hydroxy-3-(6-phenyl-hexanoxy)propyl]-1,1-dimethyl-2-(4-methoxyphenyl)ethylamine] | < 1 | –
12 | COc1ccc(CC(C)(C)NCC(O)COc2ccccc2Cl)cc1 (centres unmarked) [Compound 40, N-[2-Hydroxy-3-(2-chlorophenoxy)propyl]-1,1-dimethyl-2-(4-methoxyphenyl)ethylamine Hydrochloride] | < 1 | –
13 | COc1ccc(CC(C)(C)NCC(O)COC(C)(C)C)cc1 (centres unmarked) [Compound 25, N-(2-Hydroxy-3-t-butoxypropyl)-1,1-dimethyl-2-(4-methoxyphenyl)ethylamine] | – | < 50
14 | COc1ccc(CC(C)(C)NC[C@@H](O)COc2ccccc2C#N)cc1 [Compound 122, (R)—N-[2-Hydroxy-3-(2-cyanophenoxy)propyl]-1,1-dimethyl-2-(4-methoxyphenyl)ethylamine Hydrochloride] | < 1 | –
15 | COc1ccc(CC(C)(C)NCC(O)COc2cccc3[nH]c(O)nc23)cc1 (centres unmarked) [Compound 1] | < 50 | –
16 | COc1ccc(CC(C)(C)NCC(O)COc2ccc(C(C)(C)C)cc2)cc1 (centres unmarked) [Compound 6, N-[2-Hydroxy-3-(4-t-butylphenoxy)propyl]-1,1-dimethyl-2-(4-methoxyphenyl)ethylamine Hydrochloride] | < 1 | –
17 | COc1ccc(CC(C)(C)NCC(C)(O)COc2ccccc2)cc1 (centres unmarked) [Compound 101, N-(2-Hydroxy-2-methyl-3-phenoxypropyl)-1,1-dimethyl-2-(4-methoxyphenyl)ethylamine Hydrochloride] | < 50 | –

— patent publication US7202261B2, “Calcilytic compounds” (NPS Pharmaceuticals, Inc., priority 1996, dated 2007)
